Results published in ChEMBL document CHEMBL1201862, “PubChem BioAssay data set” (2004).
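Each compound was tested at five concentrations against cells in 96-well plates for 48 hours. At the GI50, growth is halved.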 Activity calls are given as the source filed them. Cut-off read from the data, not from the text of the source: active = GI50 up to about 1.1 µM and inactive = higher.

Legend:
Assay in all cases: DTP human tumour cell line panel, 48 h
RXF 393 = test system: RXF 393
SK-OV-3 = test system: SK-OV-3
HCT-116 = test system: HCT-116
OVCAR-8 = test system: OVCAR-8
NCI-H226 = test system: NCI-H226
HOP-92 = test system: HOP-92
SW-620 = test system: SW-620
OVCAR-3 = test system: OVCAR-3
HCC 2998 = test system: HCC 2998
UACC-62 = test system: UACC-62
SK-MEL-5 = test system: SK-MEL-5
LOX IMVI = test system: LOX IMVI
SF-539 = test system: SF-539
A549 = test system: A549
HOP-62 = test system: HOP-62
MOLT-4 = test system: MOLT-4
K562 = test system: K562
ACHN = test system: ACHN
OVCAR-5 = test system: OVCAR-5
MDA-MB-231 = test system: MDA-MB-231

SMILES | GI50 (RXF 393) | GI50 (SK-OV-3) | GI50 (HCT-116) | GI50 (OVCAR-8) | GI50 (NCI-H226) | GI50 (HOP-92) | GI50 (SW-620) | GI50 (OVCAR-3) | GI50 (HCC 2998) | GI50 (UACC-62) | GI50 (SK-MEL-5) | GI50 (LOX IMVI) | GI50 (SF-539) | GI50 (A549) | GI50 (HOP-62) | GI50 (MOLT-4) | GI50 (K562) | GI50 (ACHN) | GI50 (OVCAR-5) | GI50 (MDA-MB-231)
O=c1cc(O)ccn1C1C=C(CO)C(O)C1O (configuration not stated) | > 625 µM (inactive) | > 625 µM (inactive) | 263 µM (inactive) | > 625 µM (inactive) | > 625 µM (inactive) | 192 µM (inactive) | > 625 µM (inactive) | > 625 µM (inactive) | > 625 µM (inactive) | > 625 µM (inactive) | > 625 µM (inactive) | 455 µM (inactive) | > 625 µM (inactive) | > 625 µM (inactive) | > 625 µM (inactive) |  |  |  |  | 
N#C/C(=C\c1ccc(C(O)P(=O)(O)O)cc1)C(N)=O (configuration not stated) |  | > 100 µM (inactive) | 76.9 µM (inactive) | > 100 µM (inactive) | > 100 µM (inactive) | > 100 µM (inactive) | > 100 µM (inactive) | > 100 µM (inactive) | 3.66 µM (inactive) | 7.83 µM (inactive) | > 100 µM (inactive) | > 100 µM (inactive) | 35.3 µM (inactive) | > 100 µM (inactive) | 73.3 µM (inactive) | 24.9 µM (inactive) | > 100 µM (inactive) | 14.5 µM (inactive) |  | 
O=C1c2ccccc2C(=O)c2c(OCCOCCO)cccc21 | 48.6 µM (inactive) | > 100 µM (inactive) | 45.6 µM (inactive) | 70.1 µM (inactive) |  | 12.6 µM (inactive) | 57.5 µM (inactive) | 28.4 µM (inactive) |  | 0.585 µM (active) | 44.2 µM (inactive) | 50.2 µM (inactive) | 45.3 µM (inactive) | > 100 µM (inactive) | > 100 µM (inactive) | 58.3 µM (inactive) | > 100 µM (inactive) | 43.9 µM (inactive) | > 100 µM (inactive) | 0.935 µM (active)
CCOC(=O)CCC(NC(=O)c1ccc(Nc2nc3cc(C(F)(F)F)ccc3nc2C(=O)OCC)cc1)C(=O)OCC (configuration not stated) |  |  | 6.75 µM (inactive) | 5.45 µM (inactive) |  | 0.975 µM (active) | 18.6 µM (inactive) | 13.8 µM (inactive) | 30.8 µM (inactive) | 9.16 µM (inactive) | 23.9 µM (inactive) | 16.8 µM (inactive) | 12.6 µM (inactive) | 8.63 µM (inactive) | 14 µM (inactive) | > 100 µM (inactive) | 95.3 µM (inactive) | 13.8 µM (inactive) | 16.6 µM (inactive) | 12.5 µM (inactive)
COc1cc[n+](C)cc1 | > 100 µM (inactive) | > 100 µM (inactive) | > 100 µM (inactive) | > 100 µM (inactive) | > 100 µM (inactive) | > 100 µM (inactive) | > 100 µM (inactive) | > 100 µM (inactive) | > 100 µM (inactive) | > 100 µM (inactive) | > 100 µM (inactive) | > 100 µM (inactive) | > 100 µM (inactive) | > 100 µM (inactive) | > 100 µM (inactive) | > 100 µM (inactive) | > 100 µM (inactive) |  | > 100 µM (inactive) | 
O=c1[nH]c2ccccc2n1CCCN1CCC(n2c(=O)[nH]c3cc(Cl)ccc32)CC1 [DOMPERIDONE] | 16 µM (inactive) | 23.7 µM (inactive) | 16.8 µM (inactive) | 18.3 µM (inactive) | 24 µM (inactive) | 22.2 µM (inactive) | 17.3 µM (inactive) | 17.9 µM (inactive) | 16.7 µM (inactive) | 18.3 µM (inactive) | 14.6 µM (inactive) |  |  | 21.8 µM (inactive) | 18.3 µM (inactive) | 13.9 µM (inactive) | 21.4 µM (inactive) | 18.8 µM (inactive) | 20.2 µM (inactive) | 17.6 µM (inactive)
Cc1c(/C=N/NC(=O)c2ccccc2O)c(=O)n(-c2ccccc2)n1C | 49.2 µM (inactive) | > 100 µM (inactive) | 64.9 µM (inactive) | > 100 µM (inactive) | > 100 µM (inactive) | > 100 µM (inactive) | > 100 µM (inactive) | > 100 µM (inactive) | > 100 µM (inactive) | > 100 µM (inactive) |  | 45.4 µM (inactive) | > 100 µM (inactive) | > 100 µM (inactive) | 58.3 µM (inactive) | 72.6 µM (inactive) | > 100 µM (inactive) | > 100 µM (inactive) |  | 
CC(=O)C(/N=N\C1CCC(S(=O)(=O)NB2N=CS2)CC1)C(=O)Nc1ccccc1C (configuration not stated) | 21 µM (inactive) | 27 µM (inactive) | 13.5 µM (inactive) | 10.5 µM (inactive) | 14.9 µM (inactive) | 19.2 µM (inactive) | 16.3 µM (inactive) | 13.8 µM (inactive) | 17.5 µM (inactive) | 17.9 µM (inactive) | 12.6 µM (inactive) |  | 17.7 µM (inactive) | 13 µM (inactive) | 20 µM (inactive) | 18.3 µM (inactive) | > 100 µM (inactive) | 12.2 µM (inactive) | 19.8 µM (inactive) | 
COc1ccc(C(CC(=O)c2cccs2)C(=O)c2ccc3c(c2)OCO3)cc1 (configuration not stated) |  | > 100 µM (inactive) | > 100 µM (inactive) | > 100 µM (inactive) |  |  | > 100 µM (inactive) |  | > 100 µM (inactive) | > 100 µM (inactive) | > 100 µM (inactive) | > 100 µM (inactive) | > 100 µM (inactive) | > 100 µM (inactive) | > 100 µM (inactive) | > 100 µM (inactive) | > 100 µM (inactive) | > 100 µM (inactive) |  | > 100 µM (inactive)
CCOP(=O)(OCC)C(Cc1ccc(OC)c(OC)c1)N=C(c1ccccc1)c1ccccc1 (configuration not stated) | 61.4 µM (inactive) |  | 27.1 µM (inactive) | 42.9 µM (inactive) | 88.1 µM (inactive) | 37.9 µM (inactive) | 47.6 µM (inactive) | 34.4 µM (inactive) | 24.6 µM (inactive) | 68.7 µM (inactive) | 23.4 µM (inactive) |  | 75 µM (inactive) | 26.5 µM (inactive) |  |  | < 0.01 µM (active) | 41.6 µM (inactive) | 70.5 µM (inactive) | 42.3 µM (inactive)
C[C@H]1C(=O)O[C@@H]2CCN3CC=C(COC(=O)[C@](C)(O)[C@@]1(C)O)[C@H]23 |  | > 100 µM (inactive) | > 100 µM (inactive) | > 100 µM (inactive) | > 100 µM (inactive) | > 100 µM (inactive) | > 100 µM (inactive) | > 100 µM (inactive) | > 100 µM (inactive) | > 100 µM (inactive) | > 100 µM (inactive) | > 100 µM (inactive) | > 100 µM (inactive) | > 100 µM (inactive) | > 100 µM (inactive) | > 100 µM (inactive) | > 100 µM (inactive) | > 100 µM (inactive) | > 100 µM (inactive) | > 100 µM (inactive)
COc1ccc(OC)c2c1C(=O)C(Cl)=C(N1CCN(CCOCCO)CC1)C2=O | 19 µM (inactive) | 19.6 µM (inactive) | 4.66 µM (inactive) | 16.6 µM (inactive) | 16.7 µM (inactive) | 17.7 µM (inactive) | 8.85 µM (inactive) | 17.3 µM (inactive) | 12.4 µM (inactive) | 10.5 µM (inactive) | 16.5 µM (inactive) |  | 17.8 µM (inactive) | 20.5 µM (inactive) | 5.07 µM (inactive) | 4.32 µM (inactive) | 1.91 µM (inactive) | 16.6 µM (inactive) | 21 µM (inactive) | 13.9 µM (inactive)
